{
  "source": "ChEMBL document CHEMBL1121995",
  "about": "“Crystal structure and anti herpes simplex virus activity of 2,2'-anhydro-1-beta-D-arabinofuranosylthymine” (1982)",
  "assay_type_in_all_cases": "functional",
  "key": {"Vero [1]": {"tested_on": "Vero", "assay": "Percentage inhibition against Vero cells at a concentration of 200 uM", "conditions": "Chlorocebus sabaeus"}, "Vero [2]": {"tested_on": "Vero", "assay": "Dose of compound required to reduced HSV-1 induced cytopathogenicity in vero cells", "conditions": "Chlorocebus sabaeus, read-out: ED50 (the source's name)"}, "Vero [3]": {"tested_on": "Vero", "assay": "Percentage inhibition against Vero cells at a concentration of 600 uM", "conditions": "Chlorocebus sabaeus"}},
  "data": [
    {"smiles": "Cc1cn(C2O[C@H](CO)[C@@H](O)[C@@H]2O)c(=O)n(C)c1=O", "note": "(stereo partly drawn)", "values": [
      {"measurement": "inhibition at 200 µM", "setting": "Vero [1]", "result": 40, "unit": "%"},
      {"measurement": "EC50", "setting": "Vero [2]", "result": 0.14, "unit": "µM"},
      {"measurement": "inhibition at 600 µM", "setting": "Vero [3]", "result": 59, "unit": "%"}
    ]}
  ]
}
